According to patent US12679807B2 (MERCK SHARP & DOHME LLC, priority 2020, dated 2026):

Biological target: T1, GCS enzyme contained within Golgi preparations isolated from human A375 malignant melanoma skin cells (Homo sapiens, UniProt Q16739)
T1 construct: endogenous levels of GCS enzyme contained within Golgi preparations isolated from human A375 malignant melanoma skin cells; endogenous in cells; host or cells: A375 human malignant melanoma cells (crude Golgi preparation)
T1 sequence (Q16739 1-394): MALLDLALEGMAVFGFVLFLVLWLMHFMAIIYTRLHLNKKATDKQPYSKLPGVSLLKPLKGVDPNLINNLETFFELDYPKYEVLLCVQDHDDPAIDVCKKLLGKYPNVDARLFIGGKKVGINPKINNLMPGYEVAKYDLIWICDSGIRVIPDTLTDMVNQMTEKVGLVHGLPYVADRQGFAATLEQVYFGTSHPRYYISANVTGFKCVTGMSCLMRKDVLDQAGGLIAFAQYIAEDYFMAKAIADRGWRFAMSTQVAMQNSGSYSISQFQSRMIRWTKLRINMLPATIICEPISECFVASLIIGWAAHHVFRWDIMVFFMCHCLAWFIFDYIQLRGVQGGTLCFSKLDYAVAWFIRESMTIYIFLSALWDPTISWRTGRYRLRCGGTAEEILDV
Assay: UDP-Glo glucosylceramide synthase biochemical assay
Settings: crude Golgi preparation from A375 cells; C6 ceramide and UDP-glucose substrates; 20 h incubation at room temperature; UDP detected by luminescence
Description: UDP-Glo™ Glucosylceramide Synthase Biochemical Assay
A UDP-Glo™ glucosylceramide synthase biochemical assay was utilized to evaluate the effect of test compounds on the activity of endogenous levels of GCS enzyme contained within Golgi preparations isolated from human A375 malignant melanoma skin cells. The UDP-Glo™ glucosylceramide synthase assay uses UDP-Glucose as a nucleotide-glycosyl donor and ceramide as substrate acceptor molecules. In the reaction, glucosylceramide synthase (GCS) transfers glucose from UDP-Glucose to ceramide. Glucosylceramide and UDP are released as products.
Using Promega's UDP-Glo™ Glycosyltransferase assay kit (Promega Corporation, Madison, WI, USA (Promega)), GCS activity was indirectly measured by detecting the amount of UDP produced. An aliquot of GCS enzyme (1.5 μg crude golgi preparation, total protein) and titrated test compound were aliquoted to each well and incubated for 30 minutes at room temperature. […] An equivalent volume of substrate mixture was then added to each well. Following a 20 h incubation at room temperature to allow for GCS turnover of substrate, an equal volume of UDP detection reagent (Promega) was added to each well and incubated for an additional 75 minutes at room temperature to simultaneously convert the accumulated UDP product into ATP and generate light in a luciferase reaction. The generated light was detected using a luminometer. […] luminescence values (RLUs) were normalized to mean “min” and “max” effects, as determined on each plate. […] Values for % Emax and EC50 were determined by best-fitting the normalized data to a curve in Activity Base along a four-parameter logistic nonlinear regression (4PL) model (based on the Levenberg-Marquardt algorithm and defined by the equation below):
[formula] where: n is 4 PMin (bottom of the curve); m is 4 PMax (top of the curve); i is IP (inflection point of curve); and p is slope. See Levenberg, K., “A Method for the Solution of Certain Problems in Least Squares”, Quart. Appl. Math. […] Math.

Structure (SMILES)	EC50
Cc1cccc(C(=O)Nc2cccc3c2C(=O)N(C(C2CC2)C(C)(C)O)C3)c1Cl (single isomer, unassigned) [Compound 113, (R or S)-2-chloro-N-(2-(1-cyclopropyl-2-hydroxy-2-methylpropyl)-3-oxoisoindolin-4-yl)-3-methylbenzamide]	1.2 nM
CC(C)(O)C(C1CC1)N1Cc2cccc(NC(=O)c3cccc4c3CCC4)c2C1=O (single isomer, unassigned) [Compound 114, (R or S)-N-(2-(1-cyclopropyl-2-hydroxy-2-methylpropyl)-3-oxoisoindolin-4-yl)-2,3-dihydro-1H-indene-4-carboxamide]	1.3 nM
CC(C)(O)C(C1CC1)N1Cc2cccc(NC(=O)c3c(F)ccc(F)c3Cl)c2C1=O (single isomer, unassigned) [Compound 115, (R or S)-2-chloro-N-(2-(1-cyclopropyl-2-hydroxy-2-methylpropyl)-3-oxoisoindolin-4-yl)-3,6-difluorobenzamide]	1.5 nM
CC(C)(O)C(C1CC1)N1Cc2cccc(NC(=O)c3cccc(F)c3C(F)(F)F)c2C1=O (single isomer, unassigned) [Compound 116, (R or S)-N-(2-(1-cyclopropyl-2-hydroxy-2-methylpropyl)-3-oxoisoindolin-4-yl)-3-fluoro-2-(trifluoromethyl)benzamide]	3.1 nM
Cc1c(F)cccc1C(=O)Nc1cccc2c1C(=O)N(C(C1CC1)C(C)(C)O)C2 (single isomer, unassigned) [Compound 119, (R or S)-N-(2-(1-cyclopropyl-2-hydroxy-2-methylpropyl)-3-oxoisoindolin-4-yl)-3-fluoro-2-methylbenzamide]	7.2 nM
Cc1c(C(=O)Nc2cccc3c2C(=O)N(C(C2CC2)C(C)(C)O)C3)cccc1C(F)(F)F (single isomer, unassigned) [Compound 120, (R or S)-N-(2-(1-cyclopropyl-2-hydroxy-2-methylpropyl)-3-oxoisoindolin-4-yl)-2-methyl-3-(trifluoromethyl)benzamide]	10 nM
CC(C)(O)C(C1CC1)N1Cc2cccc(NC(=O)c3cccc4ncsc34)c2C1=O (single isomer, unassigned) [Compound 131, (R or S)-N-(2-(1-cyclopropyl-2-hydroxy-2-methylpropyl)-3-oxoisoindolin-4-yl)benzo[d]thiazole-7-carboxamide]	45 nM
COCC(C1CC1)N1Cc2cccc(NC(=O)c3ccnc4c3CCC4)c2C1=O (single isomer, unassigned) [Compound 136, (R or S)-N-(2-(1-cyclopropyl-2-methoxyethyl)-3-oxoisoindolin-4-yl)-6,7-dihydro-5H-cyclopenta[b]pyridine-4-carboxamide]	80 nM
CC(C)(O)C(C1CC1)N1Cc2cncc(NC(=O)c3ccnc4c3CCC4)c2C1=O (single isomer, unassigned) [Compound 151, (R or S)—N-(2-(1-Cyclopropyl-2-hydroxy-2-methylpropyl)-1-oxo-2,3-dihydro-1H-pyrrolo[3,4-c]pyridin-7-yl)-6,7-dihydro-5H-cyclopenta[b]pyridine-4-carboxamide]	61 nM
CC(C)(O)C(C1CC1)N1Cc2nccc(NC(=O)c3ccnc4c3CCC4)c2C1=O (single isomer, unassigned) [Compound 152, (R or S)-N-(6-(1-cyclopropyl-2-hydroxy-2-methylpropyl)-5-oxo-6,7-dihydro-5H-pyrrolo [3,4-b]pyridin-4-yl)-6,7-dihydro-5H-cyclopenta[b]pyridine-4-carboxamide]	96 nM

Further lines, results first:

EC50	Structure (SMILES)
29 nM	COc1ncc(C)c(C(=O)Nc2cccc3c2C(=O)N(C(C2CC2)C(C)(C)O)C3)c1C (single isomer, unassigned) [Compound 153, (R or S)-N-(2-(1-cyclopropyl-2-hydroxy-2-methylpropyl)-3-oxoisoindolin-4-yl)-2-methoxy-3,5-dimethylisonicotinamide]
0.1 nM	COc1ncc(Cl)c(C(=O)Nc2cccc3c2C(=O)N(C(C2CC2)C(C)(C)O)C3)c1C (single isomer, unassigned) [Compound 154, (R or S)-5-Chloro-N-(2-(1-cyclopropyl-2-hydroxy-2-methylpropyl)-3-oxoisoindolin-4-yl)-2-methoxy-3-methylisonicotinamide]
0.19 nM	CC(C)(O)C(C1CC1)N1Cc2cccc(NC(=O)c3c(Cl)cnc4c3CCO4)c2C1=O (single isomer, unassigned) [Compound 155, (R or S)-5-Chloro-N-(2-(1-cyclopropyl-2-hydroxy-2-methylpropyl)-3-oxoisoindolin-4-yl)-2,3-dihydrofuro[2,3-b]pyridine-4-carboxamide]
0.49 nM	CC(C)(O)C(C1CC1)N1Cc2cccc(NC(=O)c3c(Cl)cnc4c3OCO4)c2C1=O (single isomer, unassigned) [Compound 157, (R or S)-6-chloro-N-(2-(1-cyclopropyl-2-hydroxy-2-methylpropyl)-3-oxoisoindolin-4-yl)-[1,3]dioxolo[4,5-b]pyridine-7-carboxamide]
1 nM	CC(C)(O)C(C1CC1)N1Cc2cccc(NC(=O)c3ccnc4c3CCC4)c2C1=O (single isomer, unassigned) [Compound 158, (R or S)-N-(2-(1-cyclopropyl-2-hydroxy-2-methylpropyl)-3-oxoisoindolin-4-yl)-6,7-dihydro-5H-cyclopenta[b]pyridine-4-carboxamide]
5.9 nM	Cn1cc2c(C(=O)Nc3cccc4c3C(=O)N(C(C3CC3)C(C)(C)O)C4)cccc2n1 (single isomer, unassigned) [Compound 160, (R or S)-N-(2-(1-cyclopropyl-2-hydroxy-2-methylpropyl)-3-oxoisoindolin-4-yl)-2-methyl-2H-indazole-4-carboxamide]
23 nM	CC(C)(O)C(C1CC1)N1Cc2cccc(NC(=O)c3ccnc4c3CCO4)c2C1=O (single isomer, unassigned) [Compound 162, (R or S)-N-(2-(1-cyclopropyl-2-hydroxy-2-methylpropyl)-3-oxoisoindolin-4-yl)-2,3-dihydrofuro[2,3-b]pyridine-4-carboxamide]
61 nM	CC(C)(O)C(C1CC1)N1Cc2cccc(NC(=O)c3ccnc4c3OCCO4)c2C1=O (single isomer, unassigned) [Compound 163, (R or S)-N-(2-(1-cyclopropyl-2-hydroxy-2-methylpropyl)-3-oxoisoindolin-4-yl)-2,3-dihydro-[1,4]dioxino[2,3-b]pyridine-8-carboxamide]
77 nM	COc1nccc(C(=O)Nc2cccc3c2C(=O)N(C(C2CC2)C(C)(C)O)C3)c1OC (single isomer, unassigned) [Compound 164, (R or S)-N-(2-(1-cyclopropyl-2-hydroxy-2-methylpropyl)-3-oxoisoindolin-4-yl)-2,3-dimethoxyisonicotinamide]
200 nM	COC(C)(C)C(C1CC1)N1Cc2cccc(NC(=O)c3ccnc4c3CCC4)c2C1=O (single isomer, unassigned) [Compound 165, (R or S)-N-(2-(1-cyclopropyl-2-methoxy-2-methylpropyl)-3-oxoisoindolin-4-yl)-6,7-dihydro-5H-cyclopenta[b]pyridine-4-carboxamide]
0.3 nM	Cc1cnc2c(c1C(=O)Nc1cccc3c1C(=O)N(C(C1CC1)C(C)(C)O)C3)CCO2 (single isomer, unassigned) [Compound 168, (R or S)—N-(2-(1-Cyclopropyl-2-hydroxy-2-methylpropyl)-3-oxoisoindolin-4-yl)-5-methyl-2,3-dihydrofuro[2,3-b]pyridine-4-carboxamide]
0.4 nM	Cc1cnc2c(c1C(=O)Nc1cccc3c1C(=O)N(C(C1CC1)C(C)(C)O)C3)OCO2 (single isomer, unassigned) [Compound 169, (R or S)—N-(2-(1-Cyclopropyl-2-hydroxy-2-methylpropyl)-3-oxoisoindolin-4-yl)-6-methyl-[1,3]dioxolo[4,5-b]pyridine-7-carboxamide]
230 nM	CC(C)(O)C(C1CC1)N1Cc2cccc(/C=C/c3ccnc4c3CCC4)c2C1=O (single isomer, unassigned) [Compound 171, (R or S)-(E)-2-(1-Cyclopropyl-2-hydroxy-2-methylpropyl)-7-(2-(6,7-dihydro-5H-cyclopenta[b]pyridin-4-yl)vinyl)isoindolin-1-one]
